According to paper PMC7072517 (Biomolecules, 2020):

Legend:
[1] = target: T1, soluble epoxide hydrolase (sEH) (Homo sapiens, UniProt P34913); assay: sEH inhibition assay (PHOME substrate, fluorescence); type: biochemical; conditions: 5 µM PHOME, 37°C, 40 min, pH 7.0; n = 3; read-out: IC50, inhibitory activity on sEH (converted)
T1 construct: purchased Cayman (Ann Arbor, MI, USA) 10011669
T1 sequence (P34913 1-555): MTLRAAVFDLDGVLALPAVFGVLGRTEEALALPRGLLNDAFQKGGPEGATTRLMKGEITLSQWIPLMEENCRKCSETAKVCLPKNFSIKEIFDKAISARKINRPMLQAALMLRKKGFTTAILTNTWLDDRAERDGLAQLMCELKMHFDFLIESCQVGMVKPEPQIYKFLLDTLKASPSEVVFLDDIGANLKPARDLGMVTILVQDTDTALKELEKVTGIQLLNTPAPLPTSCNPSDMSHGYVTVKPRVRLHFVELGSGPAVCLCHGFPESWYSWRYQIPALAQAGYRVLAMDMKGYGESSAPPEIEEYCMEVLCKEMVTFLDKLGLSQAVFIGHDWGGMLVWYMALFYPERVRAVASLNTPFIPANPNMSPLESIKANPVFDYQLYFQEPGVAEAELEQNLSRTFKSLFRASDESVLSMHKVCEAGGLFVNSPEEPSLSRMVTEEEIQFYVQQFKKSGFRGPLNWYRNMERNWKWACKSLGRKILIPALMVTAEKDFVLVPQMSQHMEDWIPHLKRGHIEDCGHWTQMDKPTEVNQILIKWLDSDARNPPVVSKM
Protocol: (§1) The reactions were carried out at 37°C for 40 min. The inhibitory ratio was calculated according to the following equations: Inhibitory activityrate (%) = [(ΔC/ΔS)/ΔC] × 100(1) where ΔC andΔS represent the intensity of control and inhibitor after 40 min, respectively. y = y0 + [(a × x)/(b + x)](2) where y0 is the minimum value on the y-axis, a denotes the difference between maximum and minimum values, and b refers to the x value at 50%.

[2] = target: T1, soluble epoxide hydrolase (sEH); assay: sEH enzyme kinetics (Lineweaver–Burk and Dixon plots); type: biochemical; conditions: for Binding Mode (inhibition type): Lineweaver–Burk plot, substrate 1–12.5 µM
Protocol: as §1, with “sEH (130 µL, ~16 ng/mL) in 25 mM bis-Tris-HCl buffer (pH 7.0) containing 0.1% BSA and 20 µL of compound in MeOH was mixed in a 96-well plate, followed by the addition of 50 µL buffer containing 5 µM PHOME. The reactions” for “The reactions”
The inverse of these concentrations and v0 values were used for the Lineweaver–Burk plot. […] Furthermore, the Dixon plot is represented by the modified Lineweaver–Burk plot.

[3] = design: method as in PMID 19794443; conditions: cited from earlier work
[4] = target: T1, soluble epoxide hydrolase (sEH); conditions: cited from earlier work

O=c1cc(-c2ccc(O)c(O)c2)oc2cc(O[C@@H]3O[C@H](CO)[C@@H](O)[C@H](O)[C@H]3O)cc(O)c12 [compound 2, luteolin-7-O-glucopyranoside]
IC50 [1]: 32.1 µM | Ki ([2]; Dixon plot): 26.5 µM | Binding Mode (inhibition type) [2]: Non-competitive type

O=C(O)CCCCCCCCCCCNC(=O)NC12CC3CC(CC(C3)C1)C2 [AUDA, 12-(3-adamantan-1-yl-ureido)dodecanoic acid]
solubility [3]: low

COc1cc(-c2cc(=O)c3c(O)cc(O)cc3o2)ccc1O [compound 1, chrysoeriol]
Binding Mode (inhibition type) [2]: Non-competitive type

O=c1c(O[C@@H]2O[C@H](CO)[C@H](O)[C@H](O)[C@H]2O)c(-c2ccc(O)c(O)c2)oc2cc(O)cc(O)c12 [quercetin-3-O-β-D-galactoside]
inhibition type on sEH [4]: non-competitive

O=c1cc(-c2ccc(O)cc2)oc2cc(O)cc(O)c12 [apigenin]
inhibition type on sEH [4]: non-competitive

O=c1c(O)c(-c2ccc(O)cc2)oc2cc(O)cc(O)c12 [kaempferol]
inhibition type on sEH [4]: non-competitive

COc1cc(O)c2c(=O)c(OC)c(-c3ccc(O[C@@H]4O[C@H](CO)[C@@H](O)[C@H](O)[C@H]4O[C@@H]4OCC(O)(CO)[C@H]4O)c(OC)c3)oc2c1 (stereo partly drawn) [3,7,3′-tri-O-methylquercetin-4′-O-β-D-apiofuranosyl-(1→2)-O-β-D-glucopyranoside]
inhibition type on sEH [4]: non-competitive
